Read-outs that look alike come from different tables or passages of the source.
Assays:
[1] = test system: TNFα; assay: Cot Monocyte TNFα Cell Based Assay
[2] = biological target: Human Cot (Homo sapiens (Human), UniProt P41279); assay: High Throughput Cot Biochemical Assay
[3] = Homo sapiens, Monocyte, read-out: EC50 TNF, LPS-stimulated human monocytes, TNFα
[4] = IC50 HTRF, Cot HTRF (TR-FRET) biochemical assay
[5] = read-out: EC50 TNF, LPS-stimulated human monocytes, TNFα
[6] = read-out: IC50 HTRF, Cot HTRF (TR-FRET) biochemical assay

Chain of Human Cot (P41279 30-397): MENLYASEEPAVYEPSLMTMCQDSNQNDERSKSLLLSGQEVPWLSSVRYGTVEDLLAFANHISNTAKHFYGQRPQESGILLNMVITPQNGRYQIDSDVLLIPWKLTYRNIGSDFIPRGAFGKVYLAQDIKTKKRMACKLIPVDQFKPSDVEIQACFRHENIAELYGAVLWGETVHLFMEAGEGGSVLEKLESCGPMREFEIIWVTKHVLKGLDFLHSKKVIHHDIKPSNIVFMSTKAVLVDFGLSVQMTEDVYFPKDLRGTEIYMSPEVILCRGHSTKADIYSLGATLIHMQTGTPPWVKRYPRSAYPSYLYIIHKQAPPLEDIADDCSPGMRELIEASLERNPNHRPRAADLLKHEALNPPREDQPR

Structure (SMILES)	EC50 [1, 3]	IC50 [2, 4]	other results
COc1nccc2c([C@H](Nc3cc(Cl)c4ncc(C#N)c(NCC(C)(C)C)c4c3)c3nnn(C4(C(F)(F)F)CC4)c3F)cccc12 [Example 922, (S)-8-chloro-6-(((5-fluoro-1-(1-(trifluoromethyl)cyclopropyl)-1H-1,2,3-triazol-4-yl)(1-methoxylsoquinolin-5-yl)methyl)amino)-4-(neopentylamino)quinoline-3-carbonitrile]			EC50 ([1]; read-out: EC50 TNF, LPS-stimulated human monocytes, TNFα TR-FRET): 225 nM; IC50 ([2]; read-out: IC50 HTRF, Cot HTRF (TR-FRET KinEASE) biochemical assay, 400 μM ATP): 11 nM
CC[C@@H](Nc1c(C#N)cnc2c(Cl)cc(N[C@@H](c3cccnc3)c3c[nH]nn3)cc12)c1ccccc1 [Example 254, 8-chloro-4-(((R)-1-phenylpropyl)amino)-6-(((S)-pyridin-3-yl(1H-1,2,3-triazol-4-yl)methyl)amino)quinoline-3-carbonitrile]	230 nM	3 nM	
CC(C)(C)CNc1c(C#N)cnc2c(C#N)cc(N[C@H](c3cn(C4(C(F)(F)F)CC4)nn3)c3ccc(C#N)c4ncccc34)cc12 [Example 710, (S)-6-(((8-cyanoquinolin-5-yl)(1-(1-(trifluoromethyl)cyclopropyl)-1H-1,2,3-triazol-4-yl)methyl)amino)-4-(neopentylamino)quinoline-3,8-dicarbonitrile]	148 nM	5 nM	
Cn1cnc2cccc([C@H](Nc3cc(C#N)c4ncc(C#N)c(NCC(C)(C)C)c4c3)c3cn(C4(C(F)F)CC4)nn3)c21 [Example 523]			EC50 [1, 5]: 63 nM; IC50 [2, 6]: 2 nM
[2H]C(Nc1cc(Cl)c2ncc(C#N)c(N[C@H](CC)c3ccccc3)c2c1)(c1cn(C2CC2)nn1)c1cc(C#N)cs1 (stereo partly drawn) [Example 123, 8-chloro-6-(((4-cyanothiophen-2-yl)(1-cyclopropyl-1H-1,2,3-triazol-4-yl)methyl-d)amino)-4-(((R)-1-phenylpropyl)amino)quinoline-3-carbonitrile]	193 nM	6 nM	
Cc1nc(F)ccc1[C@H](Nc1cc(C#N)c2ncc(C#N)c(NCC(C)(C)C(F)(F)F)c2c1)c1cn(C2(C(F)(F)F)CC2)nn1 [Example 843, (S)-6-(((6-fluoro-2-methylpyridin-3-yl)(1-(1-(trifluoromethyl)cyclopropyl)-1H-1,2,3-triazol-4-yl)methyl)amino)-4-((3,3,3-trifluoro-2,2-dimethylpropyl)amino)-quinoline-3,8-dicarbonitrile]			EC50 ([1]; Homo sapiens, Monocyte, read-out: EC50 TNF, LPS-stimulated human monocytes, TNFα TR-FRET): 104 nM; IC50 ([2]; IC50 HTRF, Cot HTRF (TR-FRET KinEASE) biochemical assay, 400 μM ATP): 4 nM
Cn1ccc2c([C@H](Nc3cc(Cl)c4ncc(C#N)c(NCC(C)(C)C(F)(F)F)c4c3)c3cn(C4(C(F)(F)F)CC4)nn3)cccc2c1=O [Example 780, (S)-8-chloro-6-(((2-methyl-1-oxo-1,2-dihydroisoquinolin-5-yl)(1-(1-(trifluoromethyl)-cyclopropyl)-1H-1,2,3-triazol-4-yl)methyl)amino)-4-((3,3,3-trifluoro-2,2-dimethylpropyl)amino)-quinoline-3-carbonitrile]	52 nM	5 nM	
Cc1ncccc1[C@H](Nc1cc(Cl)c2ncc(C#N)c(N[C@H](C)c3ccccc3)c2c1)c1cn(C(C)C)nn1 [Example 230, 8-chloro-6-(((S)-(1-isopropyl-1H-1,2,3-triazol-4-yl)(2-methylpyridin-3-yl)methyl)amino)-4-(((R)-1-phenylethyl)amino)quinoline-3-carbonitrile]	252 nM	9 nM	
CC(C)(C)CNc1c(C#N)cnc2c(C#N)cc(N[C@H](c3cn(C4(C(F)F)CC4)nn3)c3cccn4nccc34)cc12 [Example 444]			EC50 [1, 5]: 33 nM; IC50 [2, 6]: 2 nM
[2H][C@](Nc1cc(OC)c2ncc(C#N)c(NCC(C)(C)C)c2c1)(c1ccc(F)nc1)c1cn(C2CC2)nn1 [Example 98, (S)-6-(((1-cyclopropyl-1H-1,2,3-triazol-4-yl)(6-fluoropyridin-3-yl)methyl-d)amino)-8-methoxy-4-(neopentylamino)quinoline-3-carbonitrile]	821 nM	49 nM	

The next lines start with results.

EC50 [1, 3]	IC50 [2, 4]	Structure (SMILES)	other results
179 nM	6 nM	CCN1CCC(n2cc([C@@H](Nc3cc(Cl)c4ncc(C#N)c(Nc5ccc(F)c(Cl)c5)c4c3)c3ccc(Cl)nc3)nn2)CC1 [Example 379, (S)-8-chloro-4-((3-chloro-4-fluoro-phenyl)amino)-6-(((6-chloropyridin-3-yl)(1-(1-ethylpiperidin-4-yl)-1H-1,2,3-triazol-4-yl)methyl)amino)quinoline-3-carbonitrile]	
219 nM	8 nM	CC(C)(C)N1CCC(n2cc([C@@H](Nc3cc(Cl)c4ncc(C#N)c(Nc5ccc(F)c(F)c5)c4c3)c3cccnc3)nn2)CC1 [Example 285, (S)-6-(((1-(1-(tert-butyl)piperidin-4-yl)-1H-1,2,3-triazol-4-yl)(pyridin-3-yl)methyl)amino)-8-chloro-4-((3,4-difluorophenyl)amino)quinoline-3-carbonitrile]	
808 nM	142 nM	CC(C)(C)CNc1c(C#N)cnc2c(C#N)cc(N[C@H](c3cn(C4(C(F)(F)F)CC4)nn3)c3cncc4ccccc34)cc12 [Example 673, (S)-6-((isoquinolin-4-yl(1-(1-(trifluoromethyl)cyclopropyl)-1H-1,2,3-triazol-4-yl)methyl)amino)-4-(neopentylamino)quinoline-3,8-dicarbonitrile]	
370 nM	17 nM	Cc1ncsc1[C@H](Nc1cc(Cl)c2ncc(C#N)c(Nc3ccc(Cl)c(Cl)c3F)c2c1)c1cn(C(C)C)nn1 [Example 235, (R)-8-chloro-4-((3,4-dichloro-2-fluorophenyl)amino)-6-(((1-isopropyl-1H-1,2,3-triazol-4-yl)(4-methylthiazol-5-yl)methyl)amino)quinoline-3-carbonitrile]	
251 nM	16 nM	N#Cc1csc([C@H](Nc2cc(Cl)c3ncc(C#N)c(Nc4ccc(F)c(Cl)c4)c3c2)c2cn(Cc3ccccn3)nn2)c1 [Example 317, (R)-8-chloro-4-((3-chloro-4-fluorophenyl)amino)-6-(((4-cyano-thiophen-2-yl)(1-(pyridin-2-ylmethyl)-1H-1,2,3-triazol-4-yl)methyl)-amino)quinoline-3-carbonitrile]	
21 nM	2 nM	Cc1nc(F)ccc1[C@H](Nc1cc(C#N)c2ncc(C#N)c(NCC(C)(C)C)c2c1)c1cn(C2(C)CC2)nn1 [Example 492, (S)-6-(((6-fluoro-2-methylpyridin-3-yl)(1-(1-methylcyclopropyl)-1H-1,2,3-triazol-4-yl)methyl)amino)-4-(neopentylamino)-quinoline-3,8-dicarbonitrile]	
36 nM	4 nM	Cn1ccc2c([C@H](Nc3cc(Cl)c4ncc(C#N)c(NCC(C)(C)C)c4c3)c3cn(C(C)(C)C)nn3)cccc2c1=O [Example 747, (S)-6-(((1-(tert-butyl)-1H-1,2,3-triazol-4-yl)(2-methyl-1-oxo-1,2-dihydroisoquinolin-5-yl)methyl)amino)-8-chloro-4-(neopentylamino)quinoline-3-carbonitrile]	
150 nM	3 nM	CCc1nc(F)ccc1[C@H](Nc1cc(C#N)c2ncc(C#N)c(NCC(C)(C)C)c2c1)c1cn(C2(C(F)F)CC2)nn1 [Example 597, (S)-6-(((1-(1-(difluoromethyl)cyclopropyl)-1H-1,2,3-triazol-4-yl)(2-ethyl-6-fluoropyridin-3-yl)methyl)amino)-4-(neopentylamino)quinoline-3,8-dicarbonitrile]	

— patent US11066414B2, “Cot modulators and methods of use thereof” (Gilead Sciences, Inc., priority 2015, dated 2021)
